The source of these data is US11860166B2 (KOREA INSTITUTE OF SCIENCE AND TECHNOLOGY, priority 2019, dated 2024).

In the test the test system is dopamine receptor D1. The following applies: co-imaging, quinpirole first, then SKF38393, FIG. 5A.

Procedure: To minimize a photobleaching phenomenon, the live fluorescence microscope was set. When stimulated with light at a wavelength of 560 nm in the live fluorescence microscope, intensity at a cpRFP fluorescence wavelength of 610 nm was measured.
To induce fluorescence intensity suitable for experiments, 50 msec exposure and ND16 intensity were maintained. The fluorescence cycle was performed for total 10 minutes by measuring cpRFP images for 1 minute using the fluorescence microscope.
The saved images were analyzed using an NIS program (Nikon). cpRFP fluorescence intensity of the entire single cells in the regions of interest (ROI) was analyzed in the NIS program.

For the molecule `Oc1cc2c(cc1O)C(c1ccccc1)CNCC2` (stereo not shown) [SKF38393], the “fluorescence of red biosensor DRD1 Red 1.3 on ligand treatment” value is “increase in fluorescence by selective response”.
